{"source": "patent US20210121493A1", "about": "“METHODS FOR TREATING LIVER DISEASES” (Cedars-Sinai Medical Center, priority 2017, published 2021)", "key": {"HepG2 cell line": {"test_system": "HepG2 cell line", "assay": "Growth of HepG2 cells by BrdU incorporation", "assay_type": "cell-based, human", "protocol": "HepG2 cells were treated with 100 μM SAMe, 10 μM OCA individually or combined for 24 hours. Growth was determined using BrdU incorporation. SAMe was mixed in saline and OCA was mixed in DMSO (0.1% final), which yielded the same values. As shown in Table 1 and FIG. 2, while OCA alone induced growth of the cancer cell line, SAMe inhibited growth of the cancer cell line even in the presence of OCA. SAMe, OCA and SAMe+OCA were 58.65%, 124.05% and 89.5%, respectively, of their respective controls.\n(§1) HepG2 (immortalized cell line consisting of human liver carcinoma cells) cells were treated with 100 μM SAMe, 10 nM GW4064 individually or combined for 24 hours. Growth was determined using BrdU incorporation. SAMe was mixed in saline and GW4064 was mixed in DMSO (0.1% final), which yielded the same values. As shown in Table 2 and FIG. 3, while GW4064 alone induced growth of the cancer cell line, SAMe inhibited growth of the cancer cell line even in the presence of GW4064. SAMe, GW4064 and SAMe+GW4064 were 75.52%, 155.70% and 116.97%, respectively, of their respective controls.\nas §1, with “Tropifexor” for “GW4064”, “Tropifexor.” for “GW4064.”, “SAMe+Tropifexor” for “SAMe+GW4064”, “151.04%” for “155.70%”, “114.77%,” for “116.97%,”"}, "[1]": {"test_system": "MzChA-1 (cholangiocarcinoma) cells or HepG2 cells", "assay": "xenograft mice models, tumor volume", "assay_type": "in vivo", "conditions": "SAMe 100 mg/kg/day orally", "protocol": "Mice were injected with MzChA-1 (cholangiocarcinoma) cells or HepG2 (immortalized cell line consisting of human liver carcinoma cells) cells. In mice treated with OCA, 30/mg/kg/day of OCA was administered orally. In mice treated with SAMe, 100 mg/kg/day was administered orally."}, "MAFG": {"test_system": "MAFG", "assay": "expression of the oncogene MAFG"}, "[2]": {"conditions": "HepG2, 10 μM OCA in DMSO, 24 hours"}, "[3]": {"conditions": "HepG2, 100 μM SAMe in saline, 24 hours"}, "[4]": {"conditions": "HepG2, 100 μM SAMe, 24 hours (Example 2)"}, "[5]": {"conditions": "HepG2, 10 nM Tropifexor, 24 hours"}, "[6]": {"conditions": "HepG2, 10 nM Tropifexor, 24 hours, listed as Tropi"}}, "note": "Where “and” joins values, the source holds several entries; their conditions need not be identical. Equal values may be shown once.", "data": [{"smiles": "CC(C)c1onc(-c2c(Cl)cccc2Cl)c1COc1ccc(/C=C/c2cccc(C(=O)O)c2)c(Cl)c1", "note": "[GW4064]", "values": [{"measurement": "BrdU Incorporation OD540 nm, AVE", "setting": "HepG2 cell line; HepG2, 10 nM GW4064, 24 hours", "result": 0.1502}, {"measurement": "BrdU Incorporation, % of respective controls", "setting": "HepG2 cell line; HepG2, 10 nM GW4064, 24 hours", "result": 155.70, "unit": "%"}, {"measurement": "BrdU Incorporation, % of respective controls", "setting": "HepG2 cell line; HepG2, 10 nM GW4064, 24 hours, listed as GW", "result": 155.6995, "unit": "%"}]}, {"smiles": "CC[C@H]1[C@@H](O)[C@@H]2[C@H](CC[C@]3(C)[C@@H]([C@H](C)CCC(=O)O)CC[C@@H]23)[C@@]2(C)CC[C@@H](O)C[C@@H]12", "note": "[OCA, 6α-ethyl-chenodeoxycholic acid]", "values": [{"measurement": "BrdU incorporation, Ave", "setting": "HepG2 cell line; [2]", "result": 0.18}, {"measurement": "BrdU incorporation, single readings", "setting": "HepG2 cell line; [2]", "result": "0.181 and 0.175 and 0.202 and 0.186 and 0.162 and 0.177"}, {"measurement": "BrdU Incorporation, % of respective controls", "setting": "HepG2 cell line; HepG2, 10 μM OCA, 24 hours", "result": 124.05, "unit": "%"}]}, {"smiles": "C[S+](CC[C@H](N)C(=O)O)C[C@H]1O[C@@H](n2cnc3c(N)ncnc32)[C@H](O)[C@@H]1O", "note": "(stereo partly drawn) [SAMe, S-adenosylmethionine]", "values": [{"measurement": "tumor volume versus control group", "setting": "[1]", "result": "lower than the control group"}, {"measurement": "effect on expression of MAFG", "setting": "MAFG", "result": "decreases expression of MAFG"}, {"measurement": "BrdU incorporation, Ave", "setting": "HepG2 cell line; [3]", "result": 0.09}, {"measurement": "BrdU incorporation, single readings", "setting": "HepG2 cell line; [3]", "result": "0.103 and 0.089 and 0.101 and 0.055 and 0.075"}, {"measurement": "BrdU Incorporation, % of respective controls", "setting": "HepG2 cell line; HepG2, 100 μM SAMe, 24 hours (Example 1)", "result": 58.65, "unit": "%"}, {"measurement": "BrdU Incorporation OD540 nm, AVE", "setting": "HepG2 cell line; [4]", "result": 0.07287}, {"measurement": "BrdU Incorporation OD540 nm, single readings", "setting": "HepG2 cell line; [4]", "result": "0.065 and 0.066 and 0.064 and 0.072 and 0.059 and 0.113 and 0.08"}, {"measurement": "BrdU Incorporation, % of respective controls", "setting": "HepG2 cell line; [4]", "result": 75.52, "unit": "%"}]}, {"smiles": "O=C(O)c1cc(F)c2nc(N3[C@@H]4CC[C@H]3C[C@@H](OCc3c(-c5ccccc5OC(F)(F)F)noc3C3CC3)C4)sc2c1", "note": "[Tropifexor]", "values": [{"measurement": "BrdU Incorporation OD540 nm, AVE", "setting": "HepG2 cell line; [5]", "result": 0.1457}, {"measurement": "BrdU Incorporation, % of respective controls", "setting": "HepG2 cell line; [5]", "result": 151.04, "unit": "%"}, {"measurement": "BrdU Incorporation OD540 nm, single readings", "setting": "HepG2 cell line; [6]", "result": "0.153 and 0.121 and 0.134 and 0.125 and 0.105 and 0.173 and 0.202"}, {"measurement": "BrdU Incorporation, % of respective controls", "setting": "HepG2 cell line; [6]", "result": 151.0363, "unit": "%"}]}]}
